PMC11372839, “Unraveling the Potential of Vitamin B3-Derived Salts with a Salicylate Anion as Dermal Active Agents for Acne Treatment” (Molecular Pharmaceutics, 2024)
Read-outs that look alike come from different tables or passages of the source.

Tests used:
[1] = parameters: method as in doi:10.1080/10826076.2015.1057642, PMID 22469554, PMID 31982561; conditions: frequently used topical acne agents; cited from earlier work
[2] = test system: Pseudomonas aeruginosa; assay: MIC and MBC determination, microdilution method; format: cell-based; conditions: for MIC: 18 h, read-out: MIC, P. aeruginosa; for MBC: read-out: MBC, P. aeruginosa
Description: (§1) The antimicrobial activities of the compounds were tested against clinical strains of an aerobic Gram-negative bacterium—Pseudomonas aeruginosa (P. aeruginosa), facultative anaerobic Gram-positive bacteria—Staphylococcus aureus (S. aureus) and Staphylococcus epidermidis (S. epidermidis), anaerobic Gram-positive bacterium—Cutibacterium acnes (C. acnes), and yeast-like fungus—Candida albicans (C. albicans).
(§2) Aerobic and facultative anaerobic bacteria cultures were grown in Brain Heart Infusion broth (BHI, bioMerieux, France) at 35 °C ± 1 °C for 18 h, C. acnes cultures were grown in thioglycolate broth with resazurin (TGB, bioMerieux, France) at 35 ± 1 °C for 48 h, and yeast cultures were grown in Sabouraud dextrose broth (SDB, Merck, Germany) at 35 ± 1 °C for 24 h. After incubation, each culture was diluted in a suitable liquid medium: P. aeruginosa, S. aureus, and S. epidermidis—Mueller–Hinton broth (MHB; Oxoid, UK); C. acnes—TGB; and C. albicans—SDB, to obtain a final suspension containing about 10^6 CFU/mL.
(§3) The microdilution method was employed to determine the compounds’ MIC (Minimal Inhibitory Concentration) and MBC/MFC (Minimal Bactericidal Concentration/Minimal Fungicidal Concentration) against the tested bacterial and fungal strains.
(§4) The compounds were serially diluted (2-fold) in the respective media (P. aeruginosa, S. aureus, and S. epidermidis—MHB, C. acnes—TGB, and C. albicans—SDB in 96-well plates), and the microbial suspensions were added. The compounds were tested in the final concentration range of 4 096 to 0.125 μg/mL, and the final microbial inoculum was approximately 5 ×10^5 CFU/mL. The tests were incubated at 35 °C ± 1 °C for 18 h (P. aeruginosa, S. aureus, and S. epidermidis) or 24 h (C. albicans) or 48 h (C. acnes). C. acnes was incubated in an anaerobic atmosphere using a GENbag anaer (bioMerieux, France). Media (without the strains) added to the different concentrations of tested compounds and media inoculated with microbial suspension were used as a negative control and growth control, respectively.
(§5) The MIC was defined as the lowest concentration at which visible growth was inhibited. MBC and MFC concentrations were determined as an extension of the MIC test. […] The plates were incubated at 35 ± 1 °C for 18–72 h. C. acnes was incubated in an anaerobic atmosphere. The MBC/MFC was defined as the lowest concentration at which no growth was observed. All tests were performed in duplicate.

[3] = test system: Staphylococcus epidermidis; assay: MIC and MBC determination, microdilution method;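 on all read-outs here: column refers to Staphylococcus epidermidis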; format: cell-based; conditions: for MIC: 18 h, read-out: MIC, S. epidermidis; for MBC: read-out: MBC, S. epidermidis
Description: as §1, §2, §3, §4, §5

[4] = test system: Cutibacterium acnes; assay: MIC and MBC determination, microdilution method; format: cell-based; conditions: for MIC / MBC: Cutibacterium acnes; for MIC: 48 h, read-out: MIC, C. acnes; for MBC: read-out: MBC, C. acnes
Description: as §1, §2, §3, §4, §5

[5] = test system: Staphylococcus aureus; assay: MIC and MBC determination, microdilution method; format: cell-based; conditions: for MIC: 18 h, read-out: MIC, S. aureus; for MBC: read-out: MBC, S. aureus
Description: as §1, §2, §3, §4, §5

[6] = Octanol–water partition coefficient, shake-flask method (OECD Test No. 107); format: physicochemical
Description: The octanol–water partition coefficients (KOW) of the synthesized products were estimated by the shake-flask method according to the OECD Test No. 107 guidelines (Partition Coefficient n-Octanol/Water: Shake-Flask Method). Measurements were performed using mutually saturated distilled water and 1-octanol in a glass vial containing a magnetic stir bar. First, the synthesized products were dissolved in distilled water (or 1-octanol) at a chosen concentration (0.01 mol per 1 L of octanol or water), and then proper amounts of the second solvent (octanol or water) were added. Subsequently, two duplicate runs were carried out with different solvent ratios: 4 mL of 1-octanol and 2 mL of water (2:1), 4 mL of 1-octanol and 4 mL of water (1:1), and 4 mL of 1-octanol and 8 mL of water ([…]). All vials were shaken at a constant temperature of 25 °C. After 24 h, all samples were centrifuged and the aqueous and octanolic phases were collected with a syringe. The concentrations of compounds in water were determined spectrophotometrically using a Rayleigh UV-1601 spectrophotometer (Beijing Beifen-Ruili Analytical, China) based on calibration curves made previously (at λmax = 262 nm) vs concentration for each substance. Two repetitions of each measurement were performed in a specific solvent ratio (1:1, 1:2, and 2:1). Finally, the log KOW was calculated as the average of six results collected for each compound.
The outermost layer of the skin (stratum corneum) contains around […] water, a relatively low amount compared to the rest of the human body. Given the hydrophobic nature of 1-octanol, it can be used as a simplified model for the stratum corneum.[50] The octanol–water partition coefficient (KOW) value represents the proportion between the concentrations of a substance in both liquid phases of a system composed of water and 1-octanol. […] The log KOW values are given in Figure 6 (exact values are provided in Table S4, Supporting Information).

[7] = test system: Artemia franciscana; assay: Ecotoxicity toward aquatic life, Artoxkit M immobilization test; format: in vivo; conditions: for EC50: Artemia franciscana; for Class: acute toxicity rating scale by Fish and Wildlife Service
Description: To determine the EC50 parameter for compounds, tests were carried out on marine crustaceans—Artemia franciscana (A. franciscana). The methodology proposed in the Artoxkit M test (MicroBioTests Inc., Gent, Belgium) was developed according to the ASTM E1440-91 standard.
The hatching process was started first. For this purpose, 50 mg of cysts was transferred to the Petri dishes attached to the Artoxkit M set, which were then immersed in 10 mL of artificial seawater with a salinity of 35‰ (a medium for the development of the tested organisms, as well as a solvent for preparing solutions of the tested compounds) and placed at a temperature of 25 °C, with access to light (6000–10,000 lux) for 30 h. Then, 2 h before placing them on the Artoxkit M plates, 20 mg of spirulina was added to cultured artemias. In addition, 1 h before the analysis, the used seawater was oxygenated by passing a stream of air through the solution. To each of the four cells in a given row of a plate from the Artoxkit M kit, 1 mL of solution at the specified concentrations (or the appropriate medium in the case of a control) were introduced. In the first column of cells (a control sample and five selected concentrations), no less than 30 artemias were placed from previously prepared Petri dishes. Then, from the first cell in the first column, artemias were collected at the selected concentration and added to the next three cells in the selected row, 10 organisms per cell. After the organisms were introduced into the appropriate cells, the plates were covered with Parafilm and then closed with a plastic cap. The prepared kit was incubated at 25 °C and protected from light. Number of motionless organisms were counted after 24 and 48 h. Immobilization was then calculated (eq 1) in relation to the number of organisms at the start of the test: [drawing 1] 1
Next, the dependence between the effect and concentration of the tested compounds was plotted, and on this basis, an EC50 value was determined.

[8] = Solubility in PBS; conditions: for Solubility in PBS, Class: Pharmacopeia solubility class, PBS pH 7.4, 25 °C
Description: The solubility in PBS solution was determined by placing 1 g (±0.0001) of tested compound in a round-bottom flask and adding specific parts of the PBS solution in portions until full dissolution. The samples were vigorously stirred for at least 5 min before the addition of the next portion of PBS, and the systems were thermostated at 25 °C. Three repetitions of the measurement were performed for each of the compounds.
Most studies on the solubility of novel APIs are carried out with pure water, aqueous PBS solutions were much more preferred due to their higher similarity to intra- and intercellular media in epidermis, while envisaging their use in transdermal delivery and skin care applications.[60] […] The collected data are presented in Figure 8 (as well as in Table S6 in the Supporting Information).

[9] = test system: cyclooxygenase-2 (PDB ID: 1CX2); assay: Molecular docking (AutoDock4); conditions: from docking IC50 values
Description: Docking studies were performed using the AutoDock4 program in AutoDockTools 1.5.7.[28] The structures for ligands (reference substances and N-alkylnicotinamide cations) were optimized for energy minimization using the MMFF94 force field in Avogadro 1.2.0 with the steepest descent algorithm and subsequently converted to a PDBQT format using OpenBabelGUI. The three-dimensional structure of target cyclooxygenase-2 (Protein Data Bank ID: 1CX2) was retrieved from Protein Data Bank (http://www.pdb.org) with a resolution of 3.00 Å. The protein molecule 1CX2 was prepared using AutoDockTools version 1.5.7. The preparation process involved checking for missing atoms, repairing any missing atoms, adding polar hydrogens and Kollman charges, and distributing charges over all of the atoms on residues. All cocrystallized compounds present in the 1CX2 structure (including water molecules and the ligand) were removed prior to the calculations. […] The interaction between the ligand and receptor and hydrogen bond lengths were analyzed using AutoDockTools and PLIP (Protein Ligand Interaction Profiler) developed by Biotechnology Center TU Dresden (BIOTEC).

[10] = test system: Candida albicans; assay: MIC and MFC determination, microdilution method; format: cell-based; conditions: for MIC: 24 h, read-out: MIC, C. albicans; for MFC: read-out: MFC, C. albicans
Description: as §1, §2, §3, §4, §5

[11] = Contact angle of aqueous solutions, sessile drop method on paraffin; format: physicochemical; conditions: aqueous solution, 25 °C
Description: The contact angle (CA) measurements were carried out using a DSA100S analyzer (Krüss, Germany, accuracy ±0.1°), at 25 °C. The determination of the contact angle was based on the sessile drop method, i.e., drops of the analyzed solution were deposited on a solid surface (paraffin). The images of the drops were taken with a CCD camera, digitized, and evaluated using Young–Laplace fitting. The CA was determined as the slope of the tangent line at the contact point between the 3 phases (solution, paraffin surface, and air).
In the case of seborrheic skin, which occurs among many people affected by acne, the epidermis is covered by a hydrophobic lipid layer, which impedes the penetration of active substances, especially those that are well soluble in water. In addition, ensuring proper drug absorption through the skin can also reduce the risk of side effects and increase the effectiveness of therapy.[72] The addition of surfactants, which improve the wettability of hydrophobic surfaces, can be a solution to this problem.[73],[74] […] Wettability analyses of aqueous solutions of the new APIs were carried out on paraffin, whose hydrophobicity is similar to that of the human skin.[75] Experiments were performed at concentrations corresponding to common NA and SAL contents in commercial formulations (0.25–1.00%).[67],[76],[77] Due to low solubilities of 5–7, tests for these salts were performed at concentrations of 0.25, 0.03, and 0.01%, respectively (please see Figure S43 in the Supporting Information).

[12] = shake-flask, 25 °C, 24 h, average of six results, read-out: Octanol-water partition coefficient (log Kow)
[13] = immobilization, motionless organisms counted after 24 and 48 h, 25 °C, read-out: EC50
[14] = toxicity range of EC50, read-out: Range
[15] = volume of PBS (pH 7.4) to dissolve 1 g, 25 °C

Row | Compound | MIC [2] [µg/mL] | MIC [3] [µg/mL] | MBC [3] [µg/mL] | MIC [5] [µg/mL] | MBC [5] [µg/mL] | logP at 24 h [6, 12] | EC50 [7, 14] [µg/mL] | Class [7] | Solubility in PBS, Class [8] | MIC [10] [µg/mL] | Contact angle ([11]; concentration 0.25%) [°] | Contact angle ([11]; concentration 0.50%) [°] | Contact angle ([11]; concentration 1.00%) [°] | Solubility in PBS, PBS [ml] [8, 15] [mL] | further results
1 | O=C(O)CCCCCCCC(=O)O [azelaic acid] | – | – | – | – | – | – | – | – | – | – | – | – | – | – | log KOW [1]: 1.42
2 | CCCCCCCCCCCC[n+]1cccc(C(N)=O)c1.O=C([O-])c1ccccc1O [compound 6] | 256 | 256 | 256 | 8 | 8 | 0.6 | 10 to 100 | Slightly Toxic (10-100) | Very Slightly Soluble (1000-10 000) | 256 | – | – | – | – | MBC [2]: 256 µg/mL; MIC [4]: 64 µg/mL; MBC [4]: 64 µg/mL; EC50 [7, 13]: 89.7 µg/mL; times more potent than NA itself [9]: 125 times; MFC [10]: 256 µg/mL
3 | CC[n+]1cccc(C(N)=O)c1.O=C([O-])c1ccccc1O [compound 1] | – | 4100 | – | 1020 | – | -1.15 | > 1000 | Relatively Harmless (>1000) | Very Soluble (<1) | – | 112.1 | 110.3 | 109.7 | < 1 | –
4 | NC(=O)c1cccnc1.O=C(O)c1ccccc1O [[NA][SAL], reference compound] | 2050 | 2050 | 2050 | 2050 | 2050 | – | – | Practically Nontoxic (100-1000) | Sparingly Soluble (30-100) | 2050 | 110.5 | 108.3 | 99.9 | 30 to 100 | MBC, C. acnes ([4]; clinical strain, anaerobic, tested 4 096 to 0.125 μg/mL, b = out of range): did not show bactericidal activity; Contact angle ([11]; concentration 1.00%, listed as cocrystal): 100 °; EC50 [7]: 565 µg/mL; EC50 ([7]; read-out: Range): 100 to 1000 µg/mL
5 | CCCC[n+]1cccc(C(N)=O)c1.O=C([O-])c1ccccc1O [compound 2] | – | 2050 | – | 1020 | – | -0.7 | > 1000 | Relatively Harmless (>1000) | Very Soluble (<1) | – | 102.7 | 104.3 | 103.9 | < 1 | –
6 | NC(=O)c1cccnc1 [NA, nicotinamide, reference compound] | – | – | – | – | – | – | > 1000 | Relatively Harmless (>1000) | – | – | 112.7 | 110.7 | 110.6 | – | logP at 24 h [6]: -0.66; Solubility in PBS, PBS [ml] ([8]; pH 7.4): < 1 mL
7 | CCCCCCCCCCCCCC[n+]1cccc(C(N)=O)c1.O=C([O-])c1ccccc1O [compound 7] | 64 | 4 | 4 | 0.5 | 0.5 | 1.34 | 100 to 1000 | Practically Nontoxic (100-1000) | Very Slightly Soluble (1000-10 000) | 16 | – | – | – | – | MBC [2]: 64 µg/mL; MIC [4]: 4 µg/mL; MBC [4]: 4 µg/mL; EC50 [7, 13]: 155 µg/mL; MFC [10]: 16 µg/mL
